Experimental data from patent publication US9737075B2, “Synergistic benzoxaborole-containing anti-fungicidal composition” (The Penn State Research Foundation, priority 2015, dated 2017).
≈ marks a conversion by molar mass, not a printed value. Read-outs that look alike come from different tables or passages of the source.

What was measured:
Assay type in all cases: cell-based
Aspergillus niger = experiment: Broth microdilution MIC of individual antifungals; conditions: for MIC: read-out: Independent MIC
Botrytis cinerea 10-1728 = experiment: Broth microdilution MIC of individual antifungals; conditions: Botrytis cinerea 10-1728, individual antifungal, 25% PDB, about 25° C., 72 hours, range over N independent triplicate studies; for MIC: 101728, read-out: Independent MIC
Magnaporthe grisea = experiment: microbe, parasite or virus in culture; conditions: for Independent MIC: Magnaporthe grisea, individual antifungal, 25% PDB, about 25° C., 72 hours, range over N independent triplicate studies; for MIC: Pyricularia oryzae, 72 h, read-out: Independent MIC
Alternaria solani = experiment: Broth microdilution MIC of individual antifungals; conditions: individual antifungal, 25% PDB, about 25° C., 72 hours, range over N independent triplicate studies; for MIC: read-out: Independent MIC
Aureobasidium pullulans = experiment: Broth microdilution MIC of individual antifungals; conditions: read-out: Independent MIC
Aspergillus fumigatus = experiment: Broth microdilution MIC of individual antifungals; conditions: individual antifungal, 25% PDB, about 25° C., 72 hours, range over N independent triplicate studies; for MIC: read-out: Independent MIC
Sclerotinia homoeocarpa = experiment: Broth microdilution MIC of individual antifungals; conditions: Sclerotinia homoeocarpa, individual antifungal, 25% PDB, about 25° C., 72 hours, range over N independent triplicate studies; for MIC: Clarireedia homoeocarpa, read-out: Independent MIC
Botrytis cinerea B17 = experiment: Broth microdilution MIC of individual antifungals; conditions: Botrytis cinerea B17; individual antifungal, 25% PDB, about 25° C., 72 hours; range over N independent triplicate studies; read-out: Independent MIC
Stachybotrys chartarum = experiment: Broth microdilution MIC of individual antifungals; conditions: individual antifungal, 25% PDB, about 25° C., 72 hours, range over N independent triplicate studies, read-out: Independent MIC
Rhizopus sp. = experiment: Broth microdilution MIC of individual antifungals; conditions: for MIC: Rhizopus, 72 h, read-out: Independent MIC
Mucor sp. = experiment: Broth microdilution MIC of individual antifungals; conditions: individual antifungal, 25% PDB, about 25° C., 72 hours, range over N independent triplicate studies
Phytophthora pini = experiment: Broth microdilution MIC of individual antifungals; conditions: individual antifungal, 25% PDB, about 25° C., 72 hours, range over N independent triplicate studies
Aspergillus flavus = experiment: Broth microdilution MIC of individual antifungals; conditions: individual antifungal, 25% PDB, about 25° C., 72 hours, range over N independent triplicate studies, read-out: Independent MIC
Penicillium chrysogenum = experiment: Broth microdilution MIC of individual antifungals; conditions: individual antifungal, 25% PDB, about 25° C., 72 hours, range over N independent triplicate studies, read-out: Independent MIC
[1] = test system: Colletotrichum orbiculare; experiment: Broth microdilution MIC of individual antifungals; conditions: individual antifungal, 25% PDB, about 25° C., 72 hours, range over N independent triplicate studies; for MIC: read-out: Independent MIC
Fusarium graminearum = experiment: microbe, parasite or virus in culture; conditions: Fusarium graminearum; for MIC: 72 h, read-out: Independent MIC
[2] = test system: Mycosphaerella zeae-maydis; experiment: Broth microdilution MIC of individual antifungals; conditions: Didymella maydis, individual antifungal, 25% PDB, about 25° C., 72 hours, range over N independent triplicate studies
Candida albicans = experiment: Broth microdilution MIC of individual antifungals; conditions: individual antifungal, 25% PDB, about 25° C., 72 hours, range over N independent triplicate studies, read-out: Independent MIC
Fusarium verticillioides = experiment: Broth microdilution MIC of individual antifungals; conditions: individual antifungal, 25% PDB, about 25° C., 72 hours, range over N independent triplicate studies, read-out: Independent MIC
[3] = test system: Fusarium solani f. sp. pisi (MP VI); experiment: Broth microdilution MIC of individual antifungals; conditions: Fusarium solani f. sp. pisi (MP VI); individual antifungal, 25% PDB, about 25° C., 72 hours; range over N independent triplicate studies; read-out: Independent MIC
[4] = individual antifungal, 25% PDB, about 25° C., 72 hours, range over N independent triplicate studies
[5] = Rhizopus sp., individual antifungal, 25% PDB, about 25° C., 72 hours, range over N independent triplicate studies

In the case of Cn1cc(C(=O)Nc2ccccc2-c2cc(F)c(F)c(F)c2)c(C(F)F)n1 [Fluxapyroxad, fluxapyroxad], the “Independent MIC” value (Aspergillus niger; [4]) is reported as “(0.39-0.4) μg/mL”, the “Independent MIC” value (Botrytis cinerea 10-1728) is reported as 6.25 µg/mL and the “Independent MIC” value (Magnaporthe grisea) is reported as 3.13 µg/mL.

CC(C)NC(=O)N1CC(=O)N(c2cc(Cl)cc(Cl)c2)C1=O [Iprodione, ipordione] showed an MIC (Alternaria solani) of 3.12 to 6.25 µg/mL, an MIC (Aureobasidium pullulans; 72 h) of 12.5 to 50 µg/mL and an MIC (Aspergillus fumigatus) of 12.5 to 50 µg/mL. The MIC (Aspergillus niger; [4]) was 50 to 100 µg/mL, the MIC (Sclerotinia homoeocarpa) was 4 to 10 µg/mL and the MIC (Botrytis cinerea 10-1728) was 15 to 25 µg/mL. For the same compound, the MIC (Botrytis cinerea B17) was 16 to 20 µg/mL, the MIC (Stachybotrys chartarum) was 25 to 30 µg/mL and the MIC (Rhizopus sp.) was 3.12 to 12.5 µg/mL. It also gave an MIC (Mucor sp.) of 1.56 to 6.25 µg/mL and an MIC (Magnaporthe grisea) of 12.5 µg/mL (≈ 37.9 µM).

For C[C@H]1O[C@H](O[C@H]2[C@H](O)[C@@H](O)[C@@H](O)[C@H](O)[C@@H]2O)[C@@H](N)C[C@@H]1NC(=N)C(=O)O [Kasugamycin], the “Independent MIC” value (Alternaria solani) was “(100-200) μg/mL”, the “Independent MIC” value (Sclerotinia homoeocarpa) was 100 µg/mL and the “Independent MIC” value (Botrytis cinerea 10-1728) was 200 µg/mL. For the same compound, the “Independent MIC” value (Phytophthora pini) was 200 µg/mL.

Compound CC#Cc1cc(C)nc(Nc2ccccc2)n1 [Mepanipyrim, mepanipyrim] has an MIC (Aspergillus flavus) of 0.75 µg/mL, an MIC (Aspergillus fumigatus) of 0.05 to 0.1 µg/mL and an MIC (Aspergillus niger; [4]) of 25 µg/mL. It also gave an MIC (Sclerotinia homoeocarpa) of 0.098 to 0.19 µg/mL, an MIC (Botrytis cinerea 10-1728) of 50 to 100 µg/mL and an MIC (Rhizopus sp.; [5]) of 50 µg/mL. For the same compound, the MIC (Penicillium chrysogenum) was 0.025 to 0.048 µg/mL.

For COCC(=O)N(c1c(C)cccc1C)C(C)C(=O)OC (stereo not shown) [Metalaxyl, metalaxyl], the MIC (Aspergillus flavus) was 400 µg/mL, the MIC (Aspergillus fumigatus) was 400 µg/mL and the MIC (Aspergillus niger; [4]) was 400 µg/mL. It also gave an MIC (Sclerotinia homoeocarpa) of 128 to 200 µg/mL, an MIC (Botrytis cinerea B17) of 50 to 64 µg/mL and an MIC (Rhizopus sp.; [5]) of 400 µg/mL.

CC(C)CC(C)c1sccc1NC(=O)c1cn(C)nc1C(F)(F)F (stereo not shown) [Penthiopyrad, penthiopyrad] gave an MIC (Aspergillus flavus) of 100 µg/mL, an MIC (Aspergillus niger; 72 h) of 0.78 to 1.56 µg/mL and an MIC (Botrytis cinerea 10-1728) of 15 to 25 µg/mL. The MIC (Magnaporthe grisea) was 1.56 µg/mL (≈ 4.34 µM) and the MIC [1] was 50 to 100 µg/mL.

In the case of CO/C=C(/C(=O)OC)c1ccccc1COc1cccc(C(F)(F)F)n1 [Picoxystrobin, picoxystrobin], the “Independent MIC” value (Aspergillus fumigatus) is reported as “(25-50) μg/mL”, the “Independent MIC” value (Sclerotinia homoeocarpa) is reported as 1.56 µg/mL and the “Independent MIC” value (Botrytis cinerea 10-1728) is reported as “(100-200) μg/mL”. For the same compound, the “Independent MIC” value (Fusarium graminearum; [4]) was “(200-400) μg/mL”, the “Independent MIC” value (Mucor sp.) was “(50-200) μg/mL” and the “Independent MIC” value (Magnaporthe grisea) was “(3.13-6.25) μg/mL”.

C=CCOC1=NS(=O)(=O)c2ccccc21 [Probenazole, probenazole] gave an MIC [2] of 200 µg/mL, an MIC (Alternaria solani) of 200 µg/mL and an MIC (Sclerotinia homoeocarpa) of 50 to 100 µg/mL. The MIC (Botrytis cinerea 10-1728) was 100 µg/mL, the MIC (Mucor sp.) was 200 µg/mL and the MIC (Magnaporthe grisea) was 100 µg/mL (≈ 448 µM). The MIC (Phytophthora pini) was 200 µg/mL.

CCCOC(=O)NCCCN(C)C [Propamocarb, propamocarb] showed an MIC (Alternaria solani) of 100 to 200 µg/mL, an MIC (Sclerotinia homoeocarpa) of 200 µg/mL and an MIC (Botrytis cinerea 10-1728) of 100 to 400 µg/mL. The MIC (Mucor sp.) was 200 to 400 µg/mL.

Work on CCCC1COC(Cn2cncn2)(c2ccc(Cl)cc2Cl)O1 (stereo not shown) [Propiconazole, propiconazole] yielded an MIC [2] of 3 to 6.25 µg/mL, an MIC (Alternaria solani) of 100 to 160 µg/mL and an MIC (Aureobasidium pullulans; 72 h) of 1.56 to 6 µg/mL. It also gave an MIC (Aspergillus flavus) of 6.25 to 12.5 µg/mL, an MIC (Aspergillus fumigatus) of 2.5 to 6.25 µg/mL and an MIC (Aspergillus niger; [4]) of 12.5 µg/mL. For the same compound, the MIC (Sclerotinia homoeocarpa) was 0.5 to 1 µg/mL, the MIC (Botrytis cinerea 10-1728) was 1.25 to 3.12 µg/mL and the MIC (Botrytis cinerea B17) was 1 to 2 µg/mL. It also gave an MIC (Candida albicans) of 100 to 200 µg/mL, an MIC (Fusarium graminearum) of 12.5 to 25 µg/mL (≈ 36.5 to 73.1 µM) and an MIC (Fusarium verticillioides) of 0.5 to 2 µg/mL. The MIC [3] was 200 µg/mL, the MIC (Stachybotrys chartarum) was 6.25 to 12.5 µg/mL and the “Independent MIC” value (Rhizopus sp.; [5]) was 12.5 µg/mL. The MIC (Rhizopus sp.; [5]) was 12.5 to 24 µg/mL, the MIC (Mucor sp.) was 50 µg/mL and the MIC (Magnaporthe grisea) was 1.56 µg/mL (≈ 4.56 µM). The MIC (Phytophthora pini) was 6.25 µg/mL, the MIC (Penicillium chrysogenum) was 6.25 to 12.5 µg/mL and the MIC [1] was 3.12 µg/mL.

In the case of COC(=O)N(OC)c1ccccc1COc1ccn(-c2ccc(Cl)cc2)n1 [Pyraclostrobin, pyraclostrobin], the MIC [2] is reported as 2 to 4 µg/mL, the MIC (Alternaria solani) is reported as 50 to 100 µg/mL and the MIC (Aureobasidium pullulans; [4]) is reported as 0.188 to 0.78 µg/mL. For the same compound, the MIC (Aspergillus fumigatus) was 20 to 25 µg/mL, the MIC (Aspergillus niger; [4]) was 25 to 50 µg/mL and the MIC (Sclerotinia homoeocarpa) was 0.5 µg/mL. For the same compound, the MIC (Botrytis cinerea 10-1728) was 200 µg/mL, the MIC (Botrytis cinerea B17) was 3.75 to 8 µg/mL and the MIC (Fusarium graminearum) was 200 µg/mL (≈ 516 µM). For the same compound, the MIC [3] was 100 to 200 µg/mL, the MIC (Stachybotrys chartarum) was 1.56 to 4 µg/mL and the MIC (Rhizopus sp.; [5]) was 50 µg/mL. For the same compound, the MIC (Mucor sp.) was 100 µg/mL, the MIC (Magnaporthe grisea) was 0.02 to 0.025 µg/mL (≈ 0.0516 to 0.0645 µM) and the MIC (Phytophthora pini) was 1.56 µg/mL. The MIC (Penicillium chrysogenum) was 0.1 to 0.4 µg/mL and the MIC [1] was 3.12 µg/mL.

For Fc1ccc(Oc2ccnc3cc(Cl)cc(Cl)c23)cc1 [Quinoxyfen, quinoxyfen], the MIC (Botrytis cinerea 10-1728) was 50 to 100 µg/mL and the MIC (Rhizopus sp.; [5]) was 100 to 200 µg/mL.

With O=[N+]([O-])c1c(Cl)c(Cl)c(Cl)c(Cl)c1Cl [Quintozene, quintozene] the “Independent MIC” value (Botrytis cinerea 10-1728) was 50 µg/mL and the “Independent MIC” value [1] was “(25-50) μg/mL”.

For C=CC1(C)OC(=O)N(c2cc(Cl)cc(Cl)c2)C1=O (stereo not shown) [Vinclozolin, vinclozolin], the MIC [2] was 6.25 to 16 µg/mL, the MIC (Aspergillus fumigatus) was 100 to 200 µg/mL and the MIC (Aspergillus niger; [4]) was 50 to 100 µg/mL. For the same compound, the MIC (Sclerotinia homoeocarpa) was 4 to 5 µg/mL, the MIC (Botrytis cinerea 10-1728) was 100 to 400 µg/mL and the MIC (Rhizopus sp.; [5]) was 100 µg/mL. It also gave an MIC (Mucor sp.) of 100 to 200 µg/mL.

For CCC(C)(NC(=O)c1cc(Cl)c(C)c(Cl)c1)C(=O)CCl (stereo not shown) [Zoxamide, zoxamide], the MIC (Botrytis cinerea 10-1728) was 0.39 to 1.6 µg/mL.
